# Data published in publication PMC11407620, “Repurposing auranofin and meclofenamic acid as energy-metabolism inhibitors and anti-cancer drugs” (PLOS ONE, 2024).
# Where two headings read alike, the source gives them in different places.
# Columns and labels:
# Breast MCF-7 cells = test: Cell proliferation, 24 h drug exposure; type: cell-based, human; conditions: for IC50: Breast MCF-7 (low metastatic), 24 h, read-out: IC50 for proliferation cell rate; for TI ratio (3T3/ cancer cells): IC50 3T3 / IC50 MCF-7; for TI ratio (H9C2/cancer cells): IC50 H9C2 / IC50 MCF-7
# Description: (§1) All metastatic (breast MDA-MB231, MDA-MB468, cervix HeLa, prostate PC3, colorectal HCT116, COLO205, glioblastoma U373), low-metastatic (breast MCF-7) cancer and non-cancer (fibroblast 3T3, cardiomyocytes H9C2) cell lines (American Type Culture Collection, Rockville, MD, USA) used in this study were cultured in Petri dishes in 20 mL of Dulbecco’s Modified Eagle’s Medium (DMEM, Sigma, MO, USA) supplemented with 10% fetal bovine serum (Biowest, Mexico) and 10,000 U penicillin/streptomycin (Sigma-Aldrich, MO, USA). […] For growth and maintenance, cells were incubated in 5% CO2/95% air at 37°C and kept until 80–90% of confluence was reached. Then, cells were harvested, washed by centrifugation and resuspended in Krebs-Ringer buffer (KR, 125 mM NaCl, 5 mM KCl, 25 mM Hepes, 1 mM MgCl2, 1 mM KH2PO4, 1.4 mM CaCl2, pH 7.4) for further use. For experimentation, cancer cells (3–5 x 10^6 cells) were cultured in DMEM (with 25 mM glucose) for 24 h in the absence of drugs. Afterwards, old-medium was replaced with fresh DMEM medium (with 25 mM glucose) in the absence (control, non-treated cells) or in the presence of logarithmic concentrations of Aur and MA for 24 h more, under the same culture conditions described above. Viability of cultured cells was determined by the trypan blue exclusion assay. The protein concentration was determined by the Lowry method.
# (§2) For cell proliferation in the presence of drugs, cancer cells (20 x 10^3 cells/well) were grown in 96-well plates containing DMEM (Sigma-Aldrich) plus 10% bovine fetal serum for 24 h. Afterwards, Aur or MA (0.01, 0.1, 10 and 100 μM) were added to the cell cultures and incubated for additional 24 h. The effect of these drugs on cell proliferation was determined in 96-well plates by the MTT (3-[4,5-dimethyl-thiazol-2-yl]-2,5-diphenyltetrazolium bromide) assay. The viability of cancer cells was > 95% after treatment with drugs.
# Breast MDA-MB-231 cells = test: Cell proliferation, 24 h drug exposure; type: cell-based, human; conditions: for IC50: Breast MDA-MB-231, 24 h, read-out: IC50 for proliferation cell rate; for TI ratio (3T3/ cancer cells): IC50 3T3 / IC50 MDA-MB-231; for TI ratio (H9C2/cancer cells): IC50 H9C2 / IC50 MDA-MB-231
# Description: as §1, §2
# Colorectal HCT116 cells = test: Cell proliferation, 24 h drug exposure; type: cell-based, human; conditions: for IC50: Colorectal HCT116, 24 h, read-out: IC50 for proliferation cell rate; for TI ratio (3T3/ cancer cells): IC50 3T3 / IC50 HCT-116; for TI ratio (H9C2/cancer cells): IC50 H9C2 / IC50 HCT-116
# Description: as §1, §2
# Prostate PC3 cells = test: Cell proliferation, 24 h drug exposure; type: cell-based, human; conditions: for TI ratio (3T3/ cancer cells): IC50 3T3 / IC50 PC3; for TI ratio (H9C2/cancer cells): IC50 H9C2 / IC50 PC3; for IC50: Prostate PC3, 24 h, read-out: IC50 for proliferation cell rate
# Description: as §1, §2
# 3T3 mouse fibroblasts = test: Cell proliferation, 24 h drug exposure (non cancer cells); type: cell-based; conditions: 3T3 mouse fibroblasts (non cancer), read-out: IC50 for proliferation cell rate
# Description: as §1, §2
# HeLa cells = test: OxPhos flux (oligomycin-sensitive respiration) in intact cells; type: cell-based, human; conditions: 24 h
# Description: (§3) For oxidative phosphorylation (OxPhos) flux, cells (2–5 mg protein/mL) were incubated at 37°C in air saturated KR medium plus 5 mM glucose. To distinguish the oxygen consumption associated to OxPhos, the cells were incubated with 5 μM oligomycin (Sigma-Aldrich, MO, USA), a potent, specific, and permeable inhibitor of the mitochondrial ATP synthase. The net OxPhos rate was determined by using a Clark type electrode, as previously described and by using a high-resolution respirometer (Oroboros Instruments, Innsbruck, Austria) at 37°C. The contribution of OxPhos and glycolysis to the cellular ATP supply was determined, respectively, from the net OxPhos rate (oligomycin-sensitive respiration) multiplied by the ATP/O or P»/O2 ratio that corresponds to 2.5 or 5, and from the rate of lactate production, assuming a stoichiometry of 1 mol of ATP produced per 1 mol of lactate produced.
# MDA-MB-231 cells = test: as above; type: cell-based, human; conditions: 24 h
# Description: as §3
# [1] = test system: AS-30D hepatoma mitochondria; test: Oxygen consumption of isolated mitochondria; type: biochemical, rat; set-up: Net State 3 oxygen consumption rate: unit not given here; conditions: for Net State 3 (State 3 –pseudoState 4) oxygen consumption rate / Pseudo State 4 oxygen consumption rate / RC (State 3/ State 4), respiratory control / State 3 oxygen consumption rate / State 4 oxygen consumption rate / Net State 3 oxygen consumption rate / RC (State 3/ State 4): Hepatoma mitochondria
# Description: AS-30D hepatocarcinoma cells were propagated in the peritoneal cavity of 200–250 g weight female Wistar rats by intra-peritoneal inoculation of 3 mL of a cellular suspension containing approximately 4 × 10^8 cells/mL [36]. After 5–6 days, the rats were sacrificed by cervical dislocation and AS-30D ascites liquid was extracted from peritoneal area with a sterile syringe and collected in 50 mL-plastic tubes. The hepatoma cells were harvested by centrifugation and washed once by centrifugation in KR buffer. For mitochondria isolation from AS-30D hepatoma, cells were permeabilized with digitonin (Sigma Aldrich, CA, USA) at 10–40 μg/mg cellular protein concentration.
# Respiration of AS-30D, liver and heart mitochondria (1 mg protein/mL) was assayed oxygraphically with a Clark-type O2 electrode in KME (120 mM KCl, 20 mM Mops, 1 mM EGTA) buffer pH 7.2 plus 2 mM KH2PO4, and different oxidizable substrates (as indicated in Results). For state 3 respiration, 600 nmol ADP were added. Mitochondria were incubated at 37°C with Aur and MA for 30–60 s before substrates were added. At the end of each respiratory measurement, dithionite was added to get the chemical zero oxygen signal.
# Isolated mitochondria (1mg protein/mL) were incubated in KME buffer (120 mM KCl, 20 mM MOPS, 1 mM EGTA) pH 7.20 plus 2 mM KH2PO4 and the indicated oxidizable substrates. For state 3 (ADP-stimulated) respiration, 300-600 nmol ADP were added. RC, respiratory control; n=3. To get the maximal reduction of molecular oxygen (zero oxygen concentration), sodium dithionite (Na2O4S2) was added at the end of each measurement.
# [2] = 5 mM Glutamate/0.1 mM Malate, 10 μM Aur
# [3] = 5 mM Glutamate/0.1 mM Malate, 25 μM Aur
# [4] = 5 mM Glutamate/0.1 mM Malate, 50 μM Aur
# [5] = 5 mM Glutamate/0.1 mM Malate, 100 μM Aur
# [6] = Succinate 0.5 mM + Rotenone 2 µM, 10 µM Aur
# [7] = Succinate 0.5 mM + Rotenone 2 µM, 25 µM Aur
# [8] = Succinate 0.5 mM + Rotenone 2 µM, 50 µM Aur
# [9] = Succinate 0.5 mM + Rotenone 2 µM, 100 µM Aur
# [10] = 5 mM Glutamate/0.1 mM Malate, 5 μM MA
# [11] = 5 mM Glutamate/0.1 mM Malate, 10 μM MA
smiles,measurement,setting,value
"CC(=O)OC[C@H]1O[C@@H]([S-])[C@H](OC(C)=O)[C@@H](OC(C)=O)[C@@H]1OC(C)=O.CCP(CC)CC.[Au+] [Aur, [1-(thio-κS)-β-D-glucopyranose-2,3,4,6-tetraacetyl] (triethylphosphine)-gold]",IC50,Breast MCF-7 cells,5 ± 0.6 µM
same,TI ratio (3T3/ cancer cells),Breast MCF-7 cells,8
same,TI ratio (H9C2/cancer cells),Breast MCF-7 cells,15
same,IC50,Breast MDA-MB-231 cells,0.8 ± 0.2 µM
same,TI ratio (3T3/ cancer cells),Breast MDA-MB-231 cells,52
same,TI ratio (H9C2/cancer cells),Breast MDA-MB-231 cells,97
same,IC50,Colorectal HCT116 cells,3 ± 1 µM
same,TI ratio (3T3/ cancer cells),Colorectal HCT116 cells,14
same,TI ratio (H9C2/cancer cells),Colorectal HCT116 cells,26
same,TI ratio (3T3/ cancer cells),Prostate PC3 cells,6
same,TI ratio (H9C2/cancer cells),Prostate PC3 cells,12
same,IC50,Prostate PC3 cells,6.5 ± 3.5 µM
same,IC50,3T3 mouse fibroblasts,42 ± 17 µM
same,OxPhos flux,HeLa cells; +Aur 1.7 μM,2.6 ± 0.5 nmol O2 min^-1 mg protein^-1
same,OxPhos flux,MDA-MB-231 cells; +Aur 0.8 μM,2.5 ± 0.5 nmol O2 min^-1 mg protein^-1
same,Net State 3 (State 3 –pseudoState 4) oxygen consumption rate,[1]; [2],91.5 ± 8 nmol O2 min^-1 mg protein^-1
same,Pseudo State 4 oxygen consumption rate,[1]; [2],33.5 ± 2 nmol O2 min^-1 mg protein^-1
same,"RC (State 3/ State 4), respiratory control",[1]; [2],2.8 ± 0.5
same,State 3 oxygen consumption rate,[1]; [2],125 ± 9 nmol O2 min^-1 mg protein^-1
same,State 4 oxygen consumption rate,[1]; [2],44 ± 6 nmol O2 min^-1 mg protein^-1
same,Net State 3 (State 3 –pseudoState 4) oxygen consumption rate,[1]; [3],78 ± 29 nmol O2 min^-1 mg protein^-1
same,Pseudo State 4 oxygen consumption rate,[1]; [3],37 ± 5 nmol O2 min^-1 mg protein^-1
same,"RC (State 3/ State 4), respiratory control",[1]; [3],2.6 ± 0.5
same,State 3 oxygen consumption rate,[1]; [3],114± 31 nmol O2 min^-1 mg protein^-1
same,State 4 oxygen consumption rate,[1]; [3],43 ± 3 nmol O2 min^-1 mg protein^-1
same,Net State 3 (State 3 –pseudoState 4) oxygen consumption rate,[1]; [4],80 ± 39 nmol O2 min^-1 mg protein^-1
same,Pseudo State 4 oxygen consumption rate,[1]; [4],52.5 ± 11 nmol O2 min^-1 mg protein^-1
same,"RC (State 3/ State 4), respiratory control",[1]; [4],2.2 ± 0.5
same,State 3 oxygen consumption rate,[1]; [4],133± 46 nmol O2 min^-1 mg protein^-1
same,State 4 oxygen consumption rate,[1]; [4],74 ± 28 nmol O2 min^-1 mg protein^-1
same,Net State 3 (State 3 –pseudoState 4) oxygen consumption rate,[1]; [5],68 ± 41 nmol O2 min^-1 mg protein^-1
same,Pseudo State 4 oxygen consumption rate,[1]; [5],67 ± 21.5 nmol O2 min^-1 mg protein^-1
same,"RC (State 3/ State 4), respiratory control",[1]; [5],1.5 ± 0.4
same,State 3 oxygen consumption rate,[1]; [5],125 ± 61 nmol O2 min^-1 mg protein^-1
same,State 4 oxygen consumption rate,[1]; [5],79 ± 30 nmol O2 min^-1 mg protein^-1
same,Net State 3 oxygen consumption rate,[1]; [6],63 ± 13
same,Pseudo State 4 oxygen consumption rate,[1]; [6],80 ± 10
same,RC (State 3/ State 4),[1]; [6],1.9 ± 0.5
same,State 3 oxygen consumption rate,[1]; [6],143 ± 18
same,State 4 oxygen consumption rate,[1]; [6],73 ± 7.5
same,Net State 3 oxygen consumption rate,[1]; [7],56.5 ± 21
same,Pseudo State 4 oxygen consumption rate,[1]; [7],90 ± 31
same,RC (State 3/ State 4),[1]; [7],1.7 ± 0.1
same,State 3 oxygen consumption rate,[1]; [7],147± 23
same,State 4 oxygen consumption rate,[1]; [7],84 ± 15
same,Net State 3 oxygen consumption rate,[1]; [8],58.3 ± 63
same,Pseudo State 4 oxygen consumption rate,[1]; [8],83 ± 23
same,RC (State 3/ State 4),[1]; [8],1.9 ± 0.3
same,State 3 oxygen consumption rate,[1]; [8],141.5± 65
same,State 4 oxygen consumption rate,[1]; [8],70 ± 28
same,Net State 3 oxygen consumption rate,[1]; [9],26 ± 46
same,Pseudo State 4 oxygen consumption rate,[1]; [9],82 ± 34
same,RC (State 3/ State 4),[1]; [9],1.8 ± 0.4
same,State 3 oxygen consumption rate,[1]; [9],104 ± 24
same,State 4 oxygen consumption rate,[1]; [9],56.5 ± 7
same,increase of state 4 respiration rates (times),"[1]; hepatoma mitochondria, GM",2.3–2.4 times
"Cc1ccc(Cl)c(Nc2ccccc2C(=O)O)c1Cl [MA, Meclofenamic acid]",IC50,"Breast MCF-7 cells; Homo sapiens, MCF7",> 100 µM
same,TI ratio (3T3/ cancer cells),Breast MCF-7 cells,1
same,TI ratio (H9C2/cancer cells),Breast MCF-7 cells,1
same,IC50,Breast MDA-MB-231 cells; Homo sapiens,51 ± 5 µM
same,TI ratio (3T3/ cancer cells),Breast MDA-MB-231 cells,2
same,TI ratio (H9C2/cancer cells),Breast MDA-MB-231 cells,2
same,IC50,"Colorectal HCT116 cells; Homo sapiens, HCT-116",> 100 µM
same,TI ratio (3T3/ cancer cells),Colorectal HCT116 cells,1
same,TI ratio (H9C2/cancer cells),Colorectal HCT116 cells,1
same,IC50,"Prostate PC3 cells; Homo sapiens, PC-3",6 ± 3 µM
same,TI ratio (3T3/ cancer cells),Prostate PC3 cells,17
same,TI ratio (H9C2/cancer cells),Prostate PC3 cells,17
same,IC50,3T3 mouse fibroblasts; Fibroblast,> 100 µM
same,OxPhos flux,HeLa cells; +MA 6 μM,1.1 ± 0.3 nmol O2 min^-1 mg protein^-1
same,OxPhos flux,MDA-MB-231 cells; +MA 50 μM,3.1 ± 2 nmol O2 min^-1 mg protein^-1
same,Net State 3 oxygen consumption rate,[1]; [10],26 ± 13
same,Pseudo State 4 oxygen consumption rate,[1]; [10],19 ± 4 (3)
same,RC (State 3/ State 4),[1]; [10],1 (3)
same,State 3 oxygen consumption rate,[1]; [10],45 ± 10 (3)
same,State 4 oxygen consumption rate,[1]; [10],45 ± 10 (3)
same,Net State 3 oxygen consumption rate,[1]; [11],0
same,RC (State 3/ State 4),[1]; [11],1 (3)
same,State 3 oxygen consumption rate,[1]; [11],36 ± 7 (3)
same,State 4 oxygen consumption rate,[1]; [11],36 ± 7 (3)
same,Pseudo State 4 oxygen consumption rate,"[1]; 5 mM Glutamate/0.1 mM Malate, 10 μM MA, in nmol O2/min/mg protein",45 ± 15 (3)
